Experimental data reported in patent US8637038B2, “Methods for inhibiting allograft rejection” (Rigel Pharmaceuticals, Inc., priority 2011, dated 2014).
“Also recorded” adds a separate entry of the source. Read-outs that look alike come from different tables or passages of the source.

Key:
JAK1/2 = experiment: IFN-γ U937 ICAM-1 surface expression; type: cell-based; conditions: for EC50: Homo sapiens
Experimental: (§1) The activity of Compound III and Compound I was assessed in a panel of cell-based assays. Compound III and Compound I are selective inhibitors of JAK1/3-dependent signaling. Data for a non-selective JAK inhibitor (Compound IV) is shown for reference. Mixed lymphocyte reactions (MLRs) were performed by incubating freshly prepared naive human peripheral blood lymphocytes from one donor with CD80+/CD86+ mature Dendritic Cells derived from a different donor for 5 days. The percentage of CD3+/CD71+ (anti-CD3-APC, Clone HIT3a, anti-CD 71-FITC, Clone M-A712; BD Biosciences, San Jose, Calif.) proliferating cells was assessed by fluorescence-activated cell sorting (FACS; BD Bioscience). Interleukin-2 (IL-2)-dependent human primary T cell proliferation was assessed using CellTiter-Glo® Luminescent Cell Viability Assay (Promega, Madison, Wis.). STAT phosphorylation induced by different cytokines in human primary T cells was measured by intracellular FACS analysis (anti-pY694-STAT5 AlexaFluor488, anti-pY701-STAT1 AlexaFluor488, and anti-pY693-STAT4 AlexaFluor488; BD Biosciences). STAT phosphorylation induced by different cytokines was performed in whole blood after red blood cell lysis (Lyse/Fix buffer, BD Biosciences) and methanol permeabilization. Interferon-γ (IFN-γ) signaling was assessed in the U937 monocytic cell line by measuring ICAM-1 surface expression by FACS (ICAM-1-APC, BD Bioscience).

[1] = tested on: H1299 lung carcinoma cells; experiment: H1299 proliferation; type: cell-based; conditions: Homo sapiens
Experimental: The erythropoietin (EPO)-dependent survival of cultured human erythroid progenitor cells (CHEPs) was determined using CellTiter-Glo® Luminescent Cell Viability Assay (Promega). Human primary T cell activation was assessed by measuring IL-2 production by ELISA (R&D Systems, Minneapolis, Minn., USA) following plate-bound anti-CD3 and anti-CD28 stimulation (Anti-Human CD3; BD Biosciences; Anti-Human CD28; Immunotech; Prague, Czech Republic). The enzymatic activity of tryptase released by human cultured mast cells (CHMCs) upon stimulation with IgE was quantified by cleavage of the synthetic fluorescent peptide substrate Z-Ala-Lys-Arg-7-amino-4-methylcoumarin (MP Biomedicals, Solon, Ohio, USA) in tryptase buffer. B-cell receptor-dependent Erk phosphorylation was measured in Ramos cells by intracellular FACS (anti-pT202/pY204-ERK1/2-AlexaFluor488; BD Biosciences). Cell proliferation assays were performed using A549 epithelial cells and H1299 lung carcinoma cells using nuclear staining to measure cell numbers (4′6-diamidino-2-phenylindole, dihydrochloride (DAPI; Invitrogen, Darmstadt, Germany)).

JAK1/Tyk2 = experiment: IFN-γ T cell phospho-STAT1; type: cell-based; conditions: Homo sapiens
Experimental: as §1, with “STAT phosphorylation induced by different cytokines was performed in whole blood after red blood cell lysis (Lyse/Fix buffer, BD Biosciences) and methanol permeabilization.” left out

[2] = tested on: human peripheral blood lymphocytes; experiment: Mixed lymphocyte reaction (MLR); type: cell-based
Experimental: as §1

[3] = tested on: Lew recipients of heterotopic BN heart transplants; experiment: Five-day heart allograft study: intragraft cytokines (Quantibody arrays); type: in vivo, rat; conditions: HD groups; for intragraft IFN-γ release / intragraft IL-10 release compared to no medication group: five days; for intragraft IFN-γ release / intragraft IL-10 release compared to no medication group / intragraft IL-10 release compared to Tac HD treatment: p<0.05
Experimental: Compound I and Compound III were provided by Rigel (South San Francisco, Calif.) and Tacrolimus was provided by Astellas (Munich, Germany). All drugs were administrated orally each in two different concentrations: Compound I LD (15 mg/kg BID; n=6) and HD (60 mg/kg BID; n=6); […] Administration of all drugs was performed every day at the same time points. Tacrolimus was applied only once a day (QD) every 24 hours. During administration of Compound I (BID) and Compound III (BID) a 12 hour pause was kept in between each drug application. Lew recipients of heterotopic BN heart transplants were randomly assigned to their group. […] An untreated syngeneic transplant group Lew-Lew was generated as control. […] Hearts were equally homogenized in 400 μl RIPA buffer (Sigma-Aldrich, St. Louis, Mo.). The protein content within the supernatant was quantified using the colorimetric BCA protein assay (Thermo Fisher Scientific, Rockford, Ill.) at 562 nm wavelength, according to the manufacturer's protocol. A total of 300 μg protein per Quantibody® array glass chip was used to quantitatively measure the intracellular cytokine content by ELISA in quadruplicates (Human cytokine array 1, Raybiotech). All values were normalized to the standard curve. Glass chip analysis was performed by Raybiotech.

[4] = read-out: EC50, proliferative response of human primary T-cells in the mixed lymphocyte reaction

SMILES	inhibition of JAK1/2-dependent ICAM-1 expression in U937 cells in response to IFN-γ (JAK1/2)	EC50 (JAK1/2; U-937, upstream kinases JAK1/2, read-out: IFN-γ U937 ICAM-1 EC50) [nM]	EC50 ([1]; NCI-H1299, upstream kinases Multiple, read-out: H1299 proliferation EC50) [nM]	EC50 (JAK1/Tyk2; upstream kinases JAK1/Tyk2, read-out: IFN-γ T cell phospho-STAT1 EC50) [nM]	EC50 ([2]; 120 h, 5 days, CD3+/CD71+ proliferating cells by FACS, read-out: MLR EC50) [nM]	EC50 [2, 4] [nM]	intragraft MCP-1 release compared to Tac HD treatment [3]	intragraft IFN-γ release [3]	intragraft IL-10 release compared to no medication group [3]	intragraft IL-10 release compared to Tac HD treatment [3]	EC50 (JAK1/2; U-937, read-out: IFN-γ U937 ICAM-1 EC50) [nM]	EC50 ([1]; NCI-H1299, read-out: H1299 proliferation EC50) [nM]	EC50 (JAK1/Tyk2; read-out: IFN-γ T cell phospho-STAT1 EC50) [nM]	EC50 ([2]; 120 h, read-out: MLR EC50) [nM]
COc1cc(Nc2ncc(C)c(Nc3ccc4oc(=O)[nH]c4c3)n2)cc(C)c1F [Compound I, 5-(2-(4-fluoro-3-methoxy-5-methylphenylamino)-5-methylpyrimidin-4-ylamino)benzo[d]oxazol-2(3H)-one]	limited inhibition	417 ± 211	3430 ± 1310	9 ± 7	16 ± 7	16	lower mean values	significantly less; also recorded: significant reduction	significantly reduced; also recorded: significant reduction	significantly less IL-10 release				
COc1cc(Nc2ncc(C)c(Nc3ccc4oc(=O)[nH]c4c3)n2)cc(C)c1C [Compound III, 5-(2-(3-methoxy-4,5-dimethylphenylamino)-5-methylpyrimidin-4-ylamino)benzol[d]oxazol-2-(3H)-one]	limited inhibition					22	lower mean values	significantly less; also recorded: significant reduction	significantly reduced; also recorded: significant reduction	significantly less IL-10 release	791 ± 352	5080 ± 1820	7 ± 1	22 ± 6
